{"source": "paper PMC8277129", "about": "“Bioconcentration of Several Series of Cationic Surfactants in Rainbow Trout” (Environmental Science & Technology, 2021)", "key": {"[1]": {"system": "juvenile rainbow trout (Oncorhynchus mykiss)", "test": "Bioconcentration (BCF) experiment based on OECD 305, aqueous exposure to surfactant mixtures", "format": "in vivo", "procedure": "Juvenile rainbow trout were purchased from EM lax in Västervik, Sweden, and held in the aquaria facility for one month prior to starting the experiment on August 28, 2018. Ethical approval for the experiments was obtained from Stockholm’s djurförsöksetiska nämnd (decision 9967–2017). The experiment was conducted in six 350 L fiberglass aquaria with a water renewal rate of 1.5 L min^–1 corresponding to a turnover time of […]. The water temperature and the air temperature in the aquaria room were 10 °C. The lighting was dim and programmed on a 12 h light/12 h dark cycle.\nThree BCF experiments were conducted, one each for MIX1 and MIX2 at pH ∼7.6 (denoted MIX1 and MIX2 in the following), and one for MIX1 at pH ∼6.2 (MIX1pH). Each experiment consisted of a 14 d exposure phase and a 28 d depuration phase. There were also two control aquaria where unexposed fish were kept, one at pH 7.6 and one at pH 6.2. For the pH 6.2 aquaria, a 20% v:v formic acid solution was pumped into a premixing basin where it was mixed with the inflowing water before entering the aquarium. pH sensors monitored pH in the premixing basin and the aquarium. The pH for the MIX1 and MIX2 experiments was governed by the pH of the water supply. Water samples were collected at 8 time points during each experiment for the determination of pH and alkalinity. Water samples were collected daily during the exposure phase for determination of total organic carbon (TOC), which was measured with NDIR detection after acidification, purging and high-temperature catalytic combustion (Shimadzu TOC-L).\nFor the exposure phase, a methanol solution of the test chemical mixture was infused continuously at 4.0 μL min^–1 into the water inflow of the aquarium using a syringe pump. The target concentrations of the chemicals in water ranged from 2.5 to 100 μg L^–1 (Table 1). They were selected to be as low as possible to minimize the risk of toxic effects while still being high enough to enable collection of high-quality data, building on the results of the tissue distribution experiment.[32] The syringe pump was started in an aquarium containing no fish. After 16 h to allow the concentrations to stabilize, ∼80 rainbow trout were transferred to the aquarium. Over the following 14 d water samples were collected and fish were sacrificed according to the schedule in Table S5. The remaining fish were then transferred to a second aquarium that received water without chemical addition. Over the following 28 d further water samples were collected and fish were sacrificed (Table S5).\nAt each fish sampling, 4–6 fish were sacrificed. Fish were also sampled periodically from the control aquaria. Following stunning and severance of the spinal cord, the fish were placed in a polyethylene bag, weighed, and immediately frozen at −20 °C. The median fish weight at sacrifice was 10.94 g, with a 25th and 75th percentile of 8.43 and 13.58 g, respectively.\nThree fish from each time point were prioritized for analysis based on proximity to the median fish weight. Each fish was semithawed, cut into 3–4 pieces, and homogenized with an Ultra-Turrax device. 150 mg of the homogenate was transferred to a preweighed 13 mL polypropylene tube, centrifuged to a pellet, and weighed. 50 μL of methanol was added and the prepared aliquot was frozen. For extraction internal standard solution (isotope labeled standards of Q10 (D21), Q14 (D29), and P16 (D33)), 3 mL of methanol and 3 steel balls (3.2 mm diameter) were added to the prepared aliquot. This mixture was mixed in a bullet blender for 1 min, and then placed in an ultrasound bath at 50 °C for 60 min. Following centrifugation, the supernatant was decanted and the extraction was repeated. The extracts were combined and a portion corresponding to 25–50 mg homogenate was cleaned up on a weak cationic exchange SPE column (WCX, 60 mg) as described elsewhere.[32] […]"}, "[2]": {"system": "gills of rainbow trout", "test": "Mechanistic one-box mass balance model of gill uptake and elimination", "conditions": "pH 7.6 (MIX1, MIX2)", "excerpt": "To gain more mechanistic insight into the results, we formulated a simple one-box mass balance model of chemical bioconcentration in fish that considered diffusive uptake and elimination across the gills as well as biotransformation.[33] The flow of water across the gills and the flow of blood through the gills were modeled as perfusion limited resistances that constrain gill uptake and elimination. […] Consequently, these resistances are unknowns. Ion trapping effects caused by differences in pH between water at the gill surface and blood in the gills are considered, drawing on previous work on the uptake and elimination of ionizable organic chemicals across the gills of rainbow trout.[22],[23] Partitioning of the chemical from the dissolved phase into blood and into whole fish was calculated as the product of the membrane lipid–water distribution ratio (DMLW,T, including partitioning of both the neutral and the charged forms) and the fraction of membrane lipid in blood and whole fish. A detailed description of the model is provided in the SI (Text S3).\nThe contribution of the water perfusion and blood perfusion resistances were compared with the overall resistance for transport across the gills from water to blood (RW→B), which was calculated from the measured kU according to equation S4.3. […] For all of the other chemicals the blood resistance is insignificant compared to the overall resistance.\nThe rate constant for elimination across the gills, k2, can be defined as follows: [drawing 1] 1 where αB and αW are the neutral fractions of the chemical in the blood and in the water at the gill surface, respectively, and DFW is the fish-water distribution ratio of the chemical at the pH of blood (8.1) (see Text S3). Using the measured kU and the values of αW, αB, and DFW estimated for the model, k2 was calculated (Table 2)."}, "[3]": {"test": "Membrane-water partition coefficient of the charged form (DMLW,C)", "format": "physicochemical", "conditions": "extrapolated from Timmer and Droge (2017)", "procedure": "Table S3: Test chemical properties\nAbbr. pKa$ Log DOC§ Log DMLW,C# SMILES\n$ pKa values derived/reported for different alkylamine type analogues. The selected value is expected to be independent of chain length for all longer chain homologues, using a weighted value obtained from the different sources with more focus on experimental data:\nAlgorithm / simulated data Experimental reference data (25 °C)\nChem ACD/ COSMO- selected\n(https://echa.europa.eu/registration-dossier/-"}, "[4]": {"test": "Estimated neutral fraction in water at the fish gill surface", "conditions": "pH 7.6 experiments; estimated pKa of 10", "excerpt": "The BCF was markedly lower for the QACs compared to tertiary amines with the same chain length: a factor >670 for Q10 compared to T10, and a factor 160 for Q14 compared to T14 (Figure 1, upper panel). The prominent structural difference between the QACs and the analogous tertiary amines is that the former are permanently charged, while the latter exist in both a charged (protonated) and a neutral form.\nText S5: Estimation of pH at the gill surface\nThe pH at the surface of the gills was calculated using the following system of 5 equations:\nalk = 2 × [CO2 ― ] + [HCO ― ] (3)\nDIC = [H CO ] + [HCO ― ] + [CO2 ― ] (4) where alk is alkalinity and DIC is total dissolved inorganic carbon. The dissociation constants K1 and K2 were estimated from water temperature according to equations 9.23 and 9.24 in http://www-naweb.iaea.org/napc/ih/documents/global_cycle/vol%20I/cht_i_09.pdf The measured pH and alkalinity in bulk water were used to solve for [H+], [HCO3-], [CO32-], [H2CO3] and DIC. For the water in the gill lamella, the carbon added to the water via respiration (0.0002 mol L-1 based on estimated oxygen demand and gill ventilation rate for a 10 g fish at 10 °C (Arnot et al. 2008, Armitage et al. 2013)) was added to DIC, and using this new DIC and the alkalinity the 5 equations were resolved for [H+], [HCO3-], [CO32-], [H2CO3] and pH. […]"}, "[5]": {"parameters": "method as in Perrin 1965, SRC, REACH, Perrin 1972, Hall 1957", "conditions": "selected per amine type, weighted from simulated and experimental analogue data; ref Perrin 1965, SRC, REACH, Perrin 1972, Hall 1957; cited from earlier work"}, "[6]": {"conditions": "pH 7.6 (MIX1, MIX2), whole fish"}}}
{"smiles": "CCCCCCCCCCCCCCN(C)C", "note": "[T14, N,N-dimethyltetradecylamine]", "values": [{"measurement": "factor by which kU is higher than for Q14", "setting": "[1]; pH 7.6", "value": 260}, {"measurement": "uptake rate constant (kU)", "setting": "[1]; pH 7.6 (MIX1, MIX2), 14 d exposure, 28 d depuration, whole fish, 10 °C", "value": 27, "unit": "L kg^–1 h^–1"}, {"measurement": "BCF (kU/kT)", "setting": "[1]; [6]", "value": 8100, "unit": "L kg^–1"}, {"measurement": "measured total elimination rate constant (kT)", "setting": "[1]; [6]", "value": 0.0034, "unit": "h^–1"}, {"measurement": "k2/kT", "setting": "[2]", "value": 1.2}, {"measurement": "predicted gill elimination rate constant eq 1 (k2)", "setting": "[2]; from measured kU and modeled αW, αB, DFW", "value": 0.004, "unit": "h^–1"}, {"measurement": "Log DMLW,C (membrane-water partition coefficient of the charged form)", "setting": "[3]", "value": 6.46}, {"measurement": "neutral fraction in the water at the fish gill surface", "setting": "[4]", "value": "approximately 0.002"}, {"measurement": "pKa used (selected value)", "setting": "[5]", "value": "C14N(CH3)2 (10.0)"}]}
